# Assay results as given in US20060151574A1, “Formulations useful against hepatitis C virus infections” (priority 2002, published 2006).
# pEC50: −log10 of the molar value.
# What was measured:
# HCV replicon cell lines = assay: HCV replicon cell lines: HCV RNA by Northern Blotting, NS5a by Western Blotting; type: cell-based, Hepatitis C virus
# Source text: The only reliable experimental animal HCV infection studies have been performed with chimpanzees. So far, there is no simple cell culture infection system available or HCV. Although a number of reports have been published describing in vitro propagation attempts of HCV in primary cells and cell lines, questions remain concerning reproducibility, low levels of expression and properly controlled detection methods (reviewed in J. Gen Virol. 81, 1631; Antiviral Chemistry and Chemotherapy 10, 99). Thus, the replicon system described by Bartenschlager and coworkers (Lohmann et al, Replication of subgenomic hepatitis C virus RNAs in a hepatoma cell line. Science 285, 110. 1999) was used for the studies disclosed herein. This replicon system reproduces a crucial part of the HCV replication cycle which is used as a system for simulating HCV infection. Bartenschlager's group produced bicistronic recombinant RNAs, so-called “replicons”, which carry the neomycin-phosphotransferase (NPT) gene as well as a version of the HCV genome where the sequences for the structural HCV proteins were deleted. After transfection of the subgenomic HCV RNA molecules into the human hepatoma cell line HuH-7, cells supporting efficient RNA-dependent RNA replication of the HCV replicons were selected based on co-amplification of the NPT gene and resulting resistance to the antibiotic G-418. Integration of coding information into the cellular genome was an exclusion criteria for functional replicons. Several lines were established from G-418 resistant clones with autonomously replicating HCV RNAs detectable by Northern Blotting.
# Possible influences and/or dependencies of HCV's RNA-dependent RNA replication and nonstructural proteins on host cell transcription are accessible to analysis with the Clontech cDNA arrays used in the methods described herein. HuH-pcDNA3 cells are HuH7 cells resistant to G-418 by integration of a NPT gene-carrying plasmid (pcDNA3, Invitrogen) and serve as negative control. Three replicon lines were analyzed for changes in cellular RNA expression patterns compared to the control line: • HuH-9-13: cell line with persistant replicon IRES377/NS3-3′/wt, described in Science 1999, 285, 110-113, • HuH-5-15: cell line with persistant replicon IRES389/NS3-3′/wt, described in Science 1999, 285, 110-113, • HuH-11-7: cell line with persistant replicon IRES377/NS2-3′/wt, described in Science 1999, 285, 110-113.
# (§1) Moreover, as model system for HCV replication there were utilized three replicon cell lines provided by Prof. R. Bartenschlager (University of Heidelberg, FRG). Cultures were treated for various periods of time with all bans retinoic acid (RA) for comparative purposes and the other agents selenium, selenium salts, Vitamin D3 and retinoids, like 9-cis retinoic acid, C1-C10 alkyl esters of 9-cis retinoic acid, C1-C10 alkyl amides of 9-cis retinoic add, N-(4-hydroxyphenyl)retinamide (4-HPR) and 6-[3-(1-adamantyl)+hydroxyphenyl]-2-naphthalene carboxylic acid (CD437; AHPN) (obtained from Sigma). Levels of expression of GI-GPx was measured on protein level by Western Blotting using antibodies provided by Prof. Brigelius-Flohe (University of Potsdam, FRG) and on RNA level by Northern blotting using GI-GPx-specific oligonucleotides as probes. Levels of HCV RNA were investigated by Northern Blotting using a DNA oligonucleotide complementary to the neomycin phosphotansferase gene as probe. Concentration of the viral protein NS5a was determined by Western Blotting with an NS5a-specific antibody (Biogenesis, UK).
# [1] = tested on: nuclear receptors (RAR, RXR); assay: Ability to act as ligands for nuclear receptors; type: binding
# PKR mRNA = PKR mRNA levels by Northern blotting (interferon response); type: cell-based, human
# Source text: In the course of retinoic acid studies it was investigated whether the RA-effect may also be mediated by activating an interferon response. A typical interferon-inducible gene codes for the double-stranded RNA-dependent protein kinase (PKR).
# replicon cells = assay: Cytotoxic effects on replicon cells
# GI-GPx = GI-GPx expression in replicon cells (Western / Northern blotting); type: cell-based, human
# Description: as §1
# interferon receptors = assay: Expression of interferon receptors in replicon cells by western Blotting; type: cell-based, human
# RAR = assay: Ligands for nuclear receptors: effector concentration; type: biochemical; conditions: read-out: EC50 (effector concentration, concentration showing 50% effect)
# [2] = six days, in the presence of selenium or a selenium salt like sodium selenite
# [3] = replicon cells, 1 μM, three days
# [4] = 1 μM, seven days, depending on the cell line
# [5] = HCV replicon cell lines, FIG. 1 Panel A
smiles,measurement,setting,value
"CC1=C(/C=C/C(C)=C/C=C/C(C)=C/C(=O)Nc2ccc(O)cc2)C(C)(C)CCC1 [4-HPR, N-(4-hydroxyphenyl)retinamide]",Effect on Replication,HCV replicon cell lines,++
same,Receptor(s),[1],RAR
"CC1=C(/C=C/C(C)=C\C=C\C(C)=C\C(=O)O)C(C)(C)CCC1 [9-cis RA, 9-cis retinoic acid]",Effect on Replication,HCV replicon cell lines,+++
same,reducing HCV load,HCV replicon cell lines,capable of reducing HCV load
same,"downregulate HCV RNA, compared with all trans retinoic acid alone",HCV replicon cell lines; first preliminary result,significantly better
"CC1=C(/C=C/C(C)=C/C=C/C(C)=C\C(=O)O)C(C)(C)CCC1 [13-cis RA, 13-cis retinoic acid]",Effect on Replication,HCV replicon cell lines,+++
"CC1(C)CCC(C)(C)c2cc(C(=O)Nc3ccc(C(=O)O)cc3)ccc21 [AM-580, (4-[5,6,7,8-tetrahydro-5,5,8,8-tetramethyl-2-naphtalenyl)carbox-amido]benzoic acid]",Effect on Replication,HCV replicon cell lines,++
same,Receptor(s),[1],RARα/not RXR
"CC1=C(/C=C/C(C)=C/C=C/C(C)=C/C(=O)O)C(C)(C)CCC1 [ATRA, all trans retinoic acid]",transcription of PKR,PKR mRNA,did not induce
same,PKR mRNA levels,"PKR mRNA; mock-transfected HuH7 cells (pcDNA3) and replicon cell lines, ATRA 1 μM, IFN as control, FIG. 1 Panel C",no up-regulation
same,toxic effects,replicon cells; [2],absence of toxic effects
same,up-regulation of GI-GPx on RNA- and protein level,"GI-GPx; 1 μM, seven days of incubation",three- to ten-fold
same,GI-GPx gene expression,"GI-GPx; HCV replicon cell lines, FIG. 1 Panel B",up-regulation
same,effect on GI-GPx expression,GI-GPx; [3],hardly an effect
same,upregulation of GI-GPx RNA and protein,"GI-GPx; replicon cells, six days",upregulation
same,interferon receptors on protein level,interferon receptors,no up-regulation
same,Effect on Replication,HCV replicon cell lines,+++
same,expression of subgenomic HCV RNA downregulated,HCV replicon cell lines; [4],two- to five-fold
same,expression of viral protein NS5a downregulated,HCV replicon cell lines; [4],two- to five-fold
same,HCV RNA,HCV replicon cell lines; [5],suppression
same,NS5a protein expression,HCV replicon cell lines; [5],suppression
same,HCV down-regulation by IFN alpha,"HCV replicon cell lines; in the presence of RA, FIG. 2 center Panel",slightly enhanced
same,effect on HCV expression,HCV replicon cell lines; [3],hardly an effect
same,reduction of HCV-NS5a protein,HCV replicon cell lines; [2],two- to five-fold
same,reduction of HCV-RNA,HCV replicon cell lines; [2],two- to five-fold
same,Receptor(s),[1],RAR
"COC(C)(C)CCCC(C)C/C=C/C(C)=C/C(=O)O (stereo not drawn) [Methoprene acid, 11-methoxy-3,7,11-trimethyl-2E,4E-dodecadienoic acid]",Effect on Replication,HCV replicon cell lines,−
same,Receptor(s),[1],RXR
C/C(=C\c1ccc(C(=O)O)cc1)c1ccc2c(c1)C(C)(C)CCC2(C)C [TTNPB],Effect on Replication,HCV replicon cell lines,+++
same,Receptor(s),[1],RAR
C=C1CC[C@H](O)C/C1=C/C=C1\CCC[C@]2(C)[C@@H]([C@H](C)CCCC(C)C)CC[C@@H]12 [Vitamin D3],reducing HCV load,HCV replicon cell lines,capable of reducing HCV load
O=[Se](O)O [sodium selenite],Severe cytotoxic effects,replicon cells; substance alone,neither observed
